{"source": "patent US9415053B2", "about": "“Solid, orally administrable pharmaceutical composition” (Bayer Intellectual Property GmbH, priority 2003, dated 2016)", "test": "Solubility of active compound (I)", "type": "physicochemical", "method": "The active compound (I) has a relatively poor water solubility (about 7 mg/l). As a result of this, difficulties with the oral bioavailability and an increased biological variability of the absorption rate can result.\nAn alternative process is the amorphization of the active compound. […] Amorphization of the active compound by means of the fusion method is also disadvantageous because of the high melting point of the active compound (about 230° C.), since an undesirably high proportion of breakdown components is formed during the preparation."}
{"smiles": "O=C(NC[C@H]1CN(c2ccc(N3CCOCC3=O)cc2)C(=O)O1)c1ccc(Cl)s1", "note": "[active compound (I), 5-chloro-N-({(5S)-2-oxo-3-[4-(3-oxo-4-morpholinyl)-phenyl]-1,3-oxazolidin-5-yl}-methyl)-2-thiophenecarboxamide]", "values": [{"measurement": "solubility in pharmaceutically acceptable solvents", "setting": "solvents such as ethanol or acetone", "value": "poorly soluble"}, {"measurement": "solubility", "setting": "water", "value": "~7", "unit": "µg/mL"}]}
